Laboratory results taken from patent US5308606A, “Method of treating and/or diagnosing soft tissue tumors” (priority 1991, dated 1994).
“And” between values parts separate entries of the source, which are not always exact repeats. Equal entries are not always repeated. Where two headings read alike, the source gives them in different places.

What was measured:
[1] = system: tumor; assay: Tumor uptake, scored from images of miniature pigs having melanomic lesions by 3 investigators; details: for Tumor Uptake (Location): average score (0-3) of 3 investigators
Description: (§1) Studies to determine the qualitative biodistribution of the various radionuclides were conducted by injecting the compositions into miniature pigs having melanotic lesions, which occur spontaneously. ^67 Ga-citrate was used as the control and was given by the same route of administration as the test samples.
(§2) Each injected solution was from 0.5-1 mL having 1-2 mCi of ^153 Sm present.
(§3) Images of each pig (right lateral, left lateral and dorsal) were taken at 4, 24, 48 and 72 hours. The 24 hour images were evaluated independently by 3 investigators using the following scheme for the uptake of ^153 Sm in various tissues:
1=Slight uptake (negligible)
2=Moderate uptake (intermediate)
(§4) The tissues evaluated were bone, liver and tumor.

[2] = system: non-target tissues; details: in vivo; cited from earlier work
[3] = in vivo; cited from earlier work
[4] = Whole body retention in miniature pigs having naturally occurring melanomic lesions
Description: as §1
Each injected solution was from 0.5-1 mL having 1-2 mCi of ^153 Sm present. Each pig had whole body counts immediately after injection and again at 24, 48 and 72 hours.
as §3

[5] = system: liver; assay: Liver uptake, scored from images of miniature pigs by 3 investigators
Description: as §1, §2, §3
1=Slight uptake (negligible)
2=Moderate uptake (intermediate)
as §4

[6] = system: bone; assay: Bone uptake, scored from images of miniature pigs by 3 investigators; details: average score (0-3) of 3 investigators; head 72 hr, text 24 hour images; one value per pig
Description: as §1, §2, §3
1=Slight uptake (negligible)
2=Moderate uptake (intermediate)
as §4

[7] = system: bone; details: pig, in vivo
Description: as §1, §2, §3
1=Slight uptake (negligible)
2=Moderate uptake (intermediate)
as §4

[8] = system: liver; details: pig, in vivo
Description: as §1, §2, §3
1=Slight uptake (negligible)
2=Moderate uptake (intermediate)
as §4

[9] = in vivo; cited from earlier work; remark: listed apart in the source
[10] = system: liver; details: in vivo; cited from earlier work
[11] = system: Ehrlich tumors; details: animals bearing Ehrlich tumors; cited from earlier work

## O=C([O-])CC(O)(CC(=O)[O-])C(=O)[O-].[67Ga+3] [B]
[1]; Draining node
  Tumor Uptake (Location): 1.67
[1]; Left head
  Tumor Uptake (Location): 3.00
[1]; Left sacrum
  Tumor Uptake (Location): 0.00
[1]; Right head
  Tumor Uptake (Location): 0.33
[1]; Right stifle
  Tumor Uptake (Location): 2.00
[1]; Right thorax
  Tumor Uptake (Location): 3.00
[1]; miniature pigs, relative to background radiation
  tumor image: almost indistinguishable from the high background radiation
[2]
  uptake in non-target tissues: high uptake
[3]
  rate of blood clearance: slow
[4]; 72 hrs, L/M ratio 20 (A), 257 (1), one value per pig
  % Whole Body Retention (72 hrs.): 98.5 % of injected dose and 96.7 % of injected dose and 97.1 % of injected dose
[4]; in words
  clearance of the extra-cellular fluid: never cleared the extra-cellular fluid
[5]; average score (0-3) of 3 investigators, head 72 hrs, text 24 hour images, one value per pig
  Liver Uptake (72 hrs): 3.00
[5]; miniature pigs, in words
  liver uptake: unacceptably large liver uptake
[6]
  Bone Uptake (72 hr): 1.00

## CC(=O)Nc1cc(CN(CC(=O)O)CC(=O)O)c(O)c(CN(CC(=O)O)CC(=O)O)c1.[153Sm+3] [Example 1]
[7]
  Bone Uptake (72 hr): 3.00
[8]
  Liver Uptake (72 hrs): 1.00

## O=C([O-])CN(CCN(CC(=O)[O-])CC(=O)[O-])CCN(CC(=O)[O-])CC(=O)[O-].[99Tc+4] [^99m Tc-DTPA]
[9]
  elimination of the radionuclide: eliminated from the body by the kidneys into the urine
  tissue localization of the radionuclide: does not result in the radionuclide localizing in any tissue

## [Cl][153Sm]([Cl])[Cl] [^153 Sm-chloride]
[10]
  liver uptake: high liver uptake

## ^99m Tc-ethylenediaminediacetic acid
[11]
  imaging of tumors: could be used to image tumors

## ^153 Sm-citrate
[10]
  liver uptake: high liver uptake
